Source: patent US5672715A, “Herbicidal substituted 3-aryl-pyrazoles” (Monsanto Company, priority 1995, dated 1997)
Where two headings read alike, the source gives them in different places.

Experiments:
Assay type in all cases: in vivo
Bedstraw Catchweed = assay: post-emergence herbicide test; details: for inhibition at 5043.82 g/ha: 4.5 lb/A
Outline: (§1)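 Plants were raised from seed in topsoil pans in the greenhouse and treated post-emergence at two to three weeks of age. Candidate chemical was applied in spray solution or suspension containing about 0.4% emulsifier at 1870 L/Ha. Activity recorded as percent inhibition.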

Corn = assay: post-emergence herbicide test; details: Zea mays, post-emergence, read-out: % plant inhibition; for inhibition at 200.072 g/ha: 0.1785 lb/A; for inhibition at 5043.82 g/ha: 4.5 lb/A
Outline: as §1

Velvetleaf = assay: post-emergence herbicide test; details: for inhibition at 200.072 g/ha: 0.1785 lb/A; for inhibition at 5043.82 g/ha: 4.5 lb/A
Outline: as §1

Cocklebur = assay: post-emergence herbicide test; details: Xanthium strumarium, post-emergence, read-out: % plant inhibition; for inhibition at 200.072 g/ha: 0.1785 lb/A; for inhibition at 5043.82 g/ha: 4.5 lb/A
Outline: as §1

Barnyardgrass [1] = assay: post-emergence herbicide test; details: Echinochloa crus-galli, post-emergence, read-out: % plant inhibition; for inhibition at 200.072 g/ha: 0.1785 lb/A; for inhibition at 5043.82 g/ha: 4.5 lb/A
Outline: as §1

Morning Glory [2] = assay: post-emergence herbicide test; details: for inhibition at 200.072 g/ha: 0.1785 lb/A; for inhibition at 5043.82 g/ha: 4.5 lb/A
Outline: as §1

Common Chickweed = assay: post-emergence herbicide test; details: for inhibition at 200.072 g/ha: 0.1785 lb/A; for inhibition at 5043.82 g/ha: 4.5 lb/A
Outline: as §1

Wheat = assay: post-emergence herbicide test; details: for inhibition at 5043.82 g/ha: 4.5 lb/A
Outline: as §1

Yellow Foxtail = assay: post-emergence herbicide test; details: Setaria, read-out: % plant inhibition; for inhibition at 200.072 g/ha: 0.1785 lb/A; for inhibition at 5043.82 g/ha: 4.5 lb/A
Outline: as §1

Soybean = assay: post-emergence herbicide test; details: for inhibition at 200.072 g/ha: 0.1785 lb/A; for inhibition at 5043.82 g/ha: 4.5 lb/A
Outline: as §1

Yellow Nutsedge = assay: post-emergence herbicide test; details: Cyperus, read-out: % plant inhibition; for inhibition at 200.072 g/ha: 0.1785 lb/A; for inhibition at 1000.92 g/ha: 0.893 lb/A; for inhibition at 5043.82 g/ha: 4.5 lb/A
Outline: as §1

Blackgrass = assay: post-emergence herbicide test; details: Alopecurus myosuroides, post-emergence, read-out: % plant inhibition; for inhibition at 7.95803 g/ha: 0.0071 lb/A; for inhibition at 40.0143 g/ha: 0.0357 lb/A; for inhibition at 200.072 g/ha: 0.1785 lb/A; for inhibition at 1000.92 g/ha: 0.893 lb/A; for inhibition at 5043.82 g/ha: 4.5 lb/A
Outline: as §1

Barnyardgrass [3] = assay: pre-emergence herbicide test; details: Echinochloa crus-galli, pre-emergence, read-out: % plant inhibition; for inhibition at 5043.82 g/ha: 4.5 lb/A
Outline: (§2)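 Read-out is percent inhibition at approximately 14 days after seeding and treating. Seeds sat on compacted topsoil beneath a cover layer containing compound in acetone or water, with greenhouse bottom-watering.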

Morning Glory [4] = assay: pre-emergence herbicide test; details: for inhibition at 5043.82 g/ha: 4.5 lb/A
Outline: as §2

Rice = assay: pre-emergence herbicide test; details: Oryza sativa, read-out: % plant inhibition; for inhibition at 5043.82 g/ha: 4.5 lb/A
Outline: as §2

[5] = Galium aparine, post-emergence, 0.893 lb/A, read-out: % plant inhibition
[6] = Galium aparine, post-emergence, read-out: % plant inhibition
[7] = Abutilon theophrasti, post-emergence, read-out: % plant inhibition
[8] = Abutilon theophrasti, post-emergence, 0.893 lb/A, read-out: % plant inhibition
[9] = Ipomoea, post-emergence, read-out: % plant inhibition
[10] = Ipomoea, post-emergence, 0.893 lb/A, read-out: % plant inhibition
[11] = post-emergence, read-out: % plant inhibition
[12] = Triticum aestivum, post-emergence, 0.893 lb/A, read-out: % plant inhibition
[13] = Triticum aestivum, post-emergence, read-out: % plant inhibition
[14] = Glycine max, post-emergence, read-out: % plant inhibition
[15] = Ipomoea, pre-emergence, 0.893 lb/A, read-out: % plant inhibition
[16] = Ipomoea, pre-emergence, read-out: % plant inhibition

Cc1c(-c2cc(F)c([N+](=O)[O-])cc2F)nn(C)c1C(F)(F)F [Compound 35]
% plant inhibition (Bedstraw Catchweed; 0.893 lb/A): 95%
inhibition at 7.95803 g/ha (Bedstraw Catchweed; Galium aparine, post-emergence, 0.0071 lb/A, read-out: % plant inhibition): 0%
inhibition at 40.0143 g/ha (Bedstraw Catchweed; Galium aparine, post-emergence, 0.0357 lb/A, read-out: % plant inhibition): 25%
inhibition at 1000.92 g/ha (Bedstraw Catchweed; [5]): 75%
inhibition at 5043.82 g/ha (Bedstraw Catchweed; [6]): 85%
inhibition at 7.95803 g/ha (Corn; 0.0071 lb/A): 0%
inhibition at 40.0143 g/ha (Corn; 0.0357 lb/A): 0%
inhibition (Corn; 0.1725 lb/A): 30%
inhibition at 200.072 g/ha (Corn): 20%
inhibition at 5043.82 g/ha (Corn): 75%
% plant inhibition (Velvetleaf; 0.893 lb/A): 70%
inhibition at 7.95803 g/ha (Velvetleaf; Abutilon theophrasti, post-emergence, 0.0071 lb/A, read-out: % plant inhibition): 0%
inhibition at 40.0143 g/ha (Velvetleaf; Abutilon theophrasti, post-emergence, 0.0357 lb/A, read-out: % plant inhibition): 0%
inhibition at 200.072 g/ha (Velvetleaf; [7]): 45%
inhibition at 1000.92 g/ha (Velvetleaf; [8]): 75%
inhibition at 5043.82 g/ha (Velvetleaf; [7]): 100%
inhibition at 7.95803 g/ha (Cocklebur; 0.0071 lb/A): 0%
inhibition at 40.0143 g/ha (Cocklebur; 0.0357 lb/A): 0%
inhibition (Cocklebur; 0.1725 lb/A): 0%
inhibition at 200.072 g/ha (Cocklebur): 0%
inhibition at 5043.82 g/ha (Cocklebur): 90%
inhibition at 7.95803 g/ha (Barnyardgrass [1]; 0.0071 lb/A): 0%
inhibition at 40.0143 g/ha (Barnyardgrass [1]; 0.0357 lb/A): 0%
inhibition at 200.072 g/ha (Barnyardgrass [1]): 0%
inhibition at 5043.82 g/ha (Barnyardgrass [1]): 65%
% plant inhibition (Morning Glory [2]; 0.893 lb/A): 100%
inhibition at 7.95803 g/ha (Morning Glory [2]; Ipomoea, post-emergence, 0.0071 lb/A, read-out: % plant inhibition): 0%
inhibition at 40.0143 g/ha (Morning Glory [2]; Ipomoea, post-emergence, 0.0357 lb/A, read-out: % plant inhibition): 0%
inhibition (Morning Glory [2]; Ipomoea, post-emergence, 0.1725 lb/A, read-out: % plant inhibition): 65%
inhibition at 200.072 g/ha (Morning Glory [2]; [9]): 75%
inhibition at 1000.92 g/ha (Morning Glory [2]; [10]): 85%
inhibition at 5043.82 g/ha (Morning Glory [2]; [9]): 95%
% plant inhibition (Common Chickweed; 0.893 lb/A): 10%
inhibition at 7.95803 g/ha (Common Chickweed; post-emergence, 0.0071 lb/A, read-out: % plant inhibition): 0%
inhibition at 40.0143 g/ha (Common Chickweed; post-emergence, 0.0357 lb/A, read-out: % plant inhibition): 0%
inhibition at 200.072 g/ha (Common Chickweed; [11]): 0%
inhibition at 5043.82 g/ha (Common Chickweed; [11]): 35%
% plant inhibition (Wheat; 0.1785 lb/A): 5%
% plant inhibition (Wheat; 0.893 lb/A): 15%
inhibition at 7.95803 g/ha (Wheat; Triticum aestivum, post-emergence, 0.0071 lb/A, read-out: % plant inhibition): 0%
inhibition at 40.0143 g/ha (Wheat; Triticum aestivum, post-emergence, 0.0357 lb/A, read-out: % plant inhibition): 0%
inhibition at 1000.92 g/ha (Wheat; [12]): 20%
inhibition at 5043.82 g/ha (Wheat; [13]): 25%
inhibition at 7.95803 g/ha (Yellow Foxtail; 0.0071 lb/A): 0%
inhibition at 40.0143 g/ha (Yellow Foxtail; 0.0357 lb/A): 0%
inhibition at 200.072 g/ha (Yellow Foxtail): 20%
inhibition at 5043.82 g/ha (Yellow Foxtail): 65%
% plant inhibition (Soybean; 0.893 lb/A): 30%
inhibition at 7.95803 g/ha (Soybean; Glycine max, post-emergence, 0.0071 lb/A, read-out: % plant inhibition): 0%
inhibition at 40.0143 g/ha (Soybean; Glycine max, post-emergence, 0.0357 lb/A, read-out: % plant inhibition): 0%
inhibition (Soybean; Glycine max, post-emergence, 0.1725 lb/A, read-out: % plant inhibition): 20%
inhibition at 200.072 g/ha (Soybean; [14]): 25%
inhibition at 5043.82 g/ha (Soybean; [14]): 55%
inhibition at 7.95803 g/ha (Yellow Nutsedge; 0.0071 lb/A): 0%
inhibition at 40.0143 g/ha (Yellow Nutsedge; 0.0357 lb/A): 0%
inhibition (Yellow Nutsedge; 0.1725 lb/A): 0%
inhibition at 200.072 g/ha (Yellow Nutsedge): 0%
inhibition at 1000.92 g/ha (Yellow Nutsedge): 0%
inhibition at 5043.82 g/ha (Yellow Nutsedge): 0%
inhibition at 7.95803 g/ha (Blackgrass; Table 4a): 0%
inhibition at 7.95803 g/ha (Blackgrass; Table 5a): 0%
inhibition at 40.0143 g/ha (Blackgrass; Table 4a): 0%
inhibition at 40.0143 g/ha (Blackgrass; Table 5a): 0%
inhibition (Blackgrass; 0.1725 lb/A, Table 4a): 0%
inhibition at 200.072 g/ha (Blackgrass; Table 4a): 0%
inhibition at 1000.92 g/ha (Blackgrass; Table 4a): 0%
inhibition at 1000.92 g/ha (Blackgrass; Table 5a): 35%
inhibition at 5043.82 g/ha (Blackgrass; Table 4a): 0%
inhibition at 5043.82 g/ha (Blackgrass; Table 5a): 45%
inhibition at 40.0143 g/ha (Barnyardgrass [3]; 0.0357 lb/A): 0%
inhibition at 200.072 g/ha (Barnyardgrass [3]; 0.1785 lb/A): 0%
inhibition at 5043.82 g/ha (Barnyardgrass [3]): 95%
% plant inhibition (Morning Glory [4]; 0.893 lb/A): 80%
inhibition at 40.0143 g/ha (Morning Glory [4]; Ipomoea, pre-emergence, 0.0357 lb/A, read-out: % plant inhibition): 0%
inhibition at 1000.92 g/ha (Morning Glory [4]; [15]): 85%
inhibition at 5043.82 g/ha (Morning Glory [4]; [16]): 85%
inhibition at 40.0143 g/ha (Rice; 0.0357 lb/A): 0%
inhibition at 5043.82 g/ha (Rice): 0%

Cc1c(-c2cc(F)ccc2F)nn(C)c1C(F)(F)F [Compound 1, 3-(2,5-Difluorophenyl)-1,4-dimethyl-5-(trifluoromethyl)-1H-pyrazole]
inhibition at 200.072 g/ha (Bedstraw Catchweed; Galium aparine, post-emergence, 0.1785 lb/A, read-out: % plant inhibition): 0%
inhibition at 1000.92 g/ha (Bedstraw Catchweed; [5]): 0%
inhibition at 5043.82 g/ha (Bedstraw Catchweed; [6]): 30%
inhibition at 200.072 g/ha (Corn): 0%
inhibition at 1000.92 g/ha (Corn; 0.893 lb/A): 0%
inhibition at 5043.82 g/ha (Corn): 40%
inhibition at 200.072 g/ha (Velvetleaf; [7]): 0%
inhibition at 1000.92 g/ha (Velvetleaf; [8]): 0%
inhibition at 5043.82 g/ha (Velvetleaf; [7]): 20%
inhibition at 200.072 g/ha (Cocklebur): 0%
inhibition at 1000.92 g/ha (Cocklebur; 0.893 lb/A): 0%
inhibition at 5043.82 g/ha (Cocklebur): 0%
inhibition at 200.072 g/ha (Barnyardgrass [1]): 0%
inhibition at 1000.92 g/ha (Barnyardgrass [1]; 0.893 lb/A): 0%
inhibition at 5043.82 g/ha (Barnyardgrass [1]): 0%
inhibition at 200.072 g/ha (Morning Glory [2]; [9]): 0%
inhibition at 1000.92 g/ha (Morning Glory [2]; [10]): 0%
inhibition at 5043.82 g/ha (Morning Glory [2]; [9]): 15%
inhibition at 200.072 g/ha (Common Chickweed; [11]): 0%
inhibition at 1000.92 g/ha (Common Chickweed; post-emergence, 0.893 lb/A, read-out: % plant inhibition): 0%
inhibition at 5043.82 g/ha (Common Chickweed; [11]): 40%
inhibition at 200.072 g/ha (Wheat; Triticum aestivum, post-emergence, 0.1785 lb/A, read-out: % plant inhibition): 0%
inhibition at 1000.92 g/ha (Wheat; [12]): 0%
inhibition at 5043.82 g/ha (Wheat; [13]): 10%
inhibition at 200.072 g/ha (Yellow Foxtail): 0%
inhibition at 1000.92 g/ha (Yellow Foxtail; 0.893 lb/A): 0%
inhibition at 5043.82 g/ha (Yellow Foxtail): 50%
inhibition at 200.072 g/ha (Soybean; [14]): 0%
inhibition at 1000.92 g/ha (Soybean; Glycine max, post-emergence, 0.893 lb/A, read-out: % plant inhibition): 0%
inhibition at 5043.82 g/ha (Soybean; [14]): 0%
inhibition at 200.072 g/ha (Yellow Nutsedge): 0%
inhibition at 1000.92 g/ha (Yellow Nutsedge): 0%
inhibition at 5043.82 g/ha (Yellow Nutsedge): 30%
inhibition at 200.072 g/ha (Blackgrass; Table 4a): 0%
inhibition at 200.072 g/ha (Blackgrass; Table 5a): 0%
inhibition at 1000.92 g/ha (Blackgrass; Table 4a): 0%
inhibition at 1000.92 g/ha (Blackgrass; Table 5a): 0%
inhibition at 5043.82 g/ha (Blackgrass; Table 4a): 0%
inhibition at 5043.82 g/ha (Blackgrass; Table 5a): 35%
inhibition at 1000.92 g/ha (Barnyardgrass [3]; 0.893 lb/A): 0%
inhibition at 5043.82 g/ha (Barnyardgrass [3]): 50%
inhibition at 1000.92 g/ha (Morning Glory [4]; [15]): 0%
inhibition at 5043.82 g/ha (Morning Glory [4]; [16]): 35%
inhibition at 1000.92 g/ha (Rice; 0.893 lb/A): 25%
inhibition at 5043.82 g/ha (Rice): 0%
